# “Also recorded” adds a separate entry of the source.
# Assays:
# ARPE-19 cells [1] = assay: RPE protection assay: ox-LDL-induced cell death, LDH release; format: cell-based, Human; conditions: for cytotoxicity at 0.43 µM: compound 0.43 μM; for cytotoxicity at 1.4 µM: compound 1.4 μM; for protective effect against ox-LDL-induced RPE cell death: high dose 10.4 μM; for relative RPE protective activity compared with other compounds: ox-LDL 200 μg/ml (FIGS. 5, 7); for cytotoxicity at 4.3 µM: compound 4.3 μM
# Description: FIG. 2 is a graph showing dose-dependent inhibition of ox-LDL-induced RPE death by trolox. […] Data=mean±standard error of the mean (SEM), non-linear regression (GraphPad Prism 6).
# FIGS. 5B and 5C are graphs showing RPE protection by selective anti-oxidants with a hindered phenol group. ARPE-19 cells were treated with ox-LDL (200 μg/ml) with and without different concentrations of various anti-oxidants. Cell death was measured by LDH release assay. Data=mean±SEM, *P<0.05, ***P<0.001 compared to ox-LDL group, ANOVA.
# FIG. 6 is a graph comparing RPE protection activity of hindered phenol-containing 2,2,5,7,8-pentamethyl-6-chromanol (PMC) and selective inhibitors of nucleotide-binding domain, leucine-rich-containing family, pyrin domain-containing-3 (NLRP3) inflammasome activation. ARPE-19 cells were treated with ox-LDL (200 μg/ml) with and without different concentrations of PMC and selective inhibitors of NLRP3 inflammasome activation, MCC950 and isoliquiritigenin. Cell death was measured by LDH release assay. Data=mean±SEM, ***P<0.001 compared to ox-LDL group, ANOVA.
# FIGS. 7B and 7C are graphs that show RPE protection by different experimental analogs of trolox and BHT. ARPE-19 cells were treated with ox-LDL (200 μg/ml) with and without different concentrations of the different analogs of trolox and BHT for 48 hours, cell death was determined by LDH assay. Note that many of the compounds were able to suppress ox-LDL-induced cell death similar to PMC. Data=mean±SEM, *P<0.05, ***P<0.001 compared to ox-LDL group, ANOVA.
# ARPE-19 cells: Human ARPE-19 cells (ATCC, Manassas, Va.) were propagated as described previously (Tseng, W. A., et al., Invest Ophthalmol Vis Sci, 2013. 54(1): p. 110-20). Cells were cultured in DMEMIF12 medium (Lonza, Walkersville, Md.) supplemented with 10% fetal bovine serum (FBS) (Atlanta Biologicals, Lawrenceville, Ga.), 2 mM L-glutamine (Lonza), and 100 U/ml penicillin−100 μg/ml streptomycin (Lonza) (complete media), and passaged at a ratio of 1:2 to 1:4 using trypsin-versene (Lonza). Prior to experiments, cells were maintained in 1% FBS medium for about 3 weeks to obtain ARPE-19 cells with differentiated phenotypes. The transepithelial electrical resistance (TER) of each batch of ARPE-19 cells was measured in cells cultured on laminin-coated 0.4 μm-pore transwell membranes (Corning, Mass.) to ensure it was at least 50 ohm·cm2 (EVOM2 Voltohmmeter, World Precision Instruments, Inc., Sarasota, Fla.) before the cells were used for experiments.
# ARPE-19 cells were treated with ox-LDL (200 μg/ml) with and without different concentrations of the selected analogs for 48 hours, cell death was determined by LDH assay.
# ARPE-19 cells [2] = assay: Lysosomal integrity, LysoTracker staining; format: cell-based, Human
# Description: FIG. 3 is a graph showing that trolox dose-dependently suppresses ox-LDL-induced lysosomal destabilization in RPE. ARPE-19 cells were treated with ox-LDL with and without different concentrations of trolox for 36 hours. Lysosomal integrity was determined by LysoTracker staining (ThermoFisher Scientific), followed by image analysis to quantify the number of intact lysosomes per cell. […] Data=mean±SEM, *P<0.05, **P<0.01, ***P<0.001 compared to ox-LDL group, analysis of variance (ANOVA).
# (§1) Lysosomal integrity and NF-κB activation: ARPE-19 cells were treated with ox-LDL with and without different concentrations of trolox for 36 hours. Lysosomal integrity was determined by LysoTracker staining (ThermoFisher Scientific), followed by image analysis to quantify the number of intact lysosomes per cell. […] Antibody specific for NF-κB p65 (Cell Signaling, Danvers, Mass.) was used for the immunostaining.
# ARPE-19 cells [3] = assay: ox-LDL-induced ROS formation, ROS-ID Total ROS detection kit; conditions: ox-LDL 200 μg/ml, 28 hours (FIG. 1)
# NF-κB = NF-κB activation, nuclear translocation of NF-κB p65 by immunostaining; format: cell-based, Human; conditions: ox-LDL 200 μg/ml, trolox 10.4 μM, 36 hours (FIG. 4)
# Description: as §1
# [4] = Homo sapiens, ARPE-19, ox-LDL 200 μg/ml, 48 hours, LDH assay, read-out: Protective activity against 200 μg/ml ox-LDL (% cell death, compound concentration)
SMILES,cytotoxicity at 1.4 µM (ARPE-19 cells [1]; [4]) [%],cytotoxicity at 4.3 µM (ARPE-19 cells [1]; [4]) [%],other results
Cc1c(C)c2c(c(C)c1O)CCC(C)(C(=O)N(C)CCc1cnn(C)c1)O2 (centres unmarked) [J],,,cytotoxicity at 0.43 µM (ARPE-19 cells [1]; [4]): < 10%
Cc1c(C)c2c(c(C)c1O)CCC(C)(C(=O)N(C)Cc1ncon1)O2 (centres unmarked) [K],< 10,,
Cc1c(C)c2c(c(C)c1O)CCC(C)(C(=O)N(C)Cc1ncc[nH]1)O2 (centres unmarked) [L],< 10,,
"CC(C)(O)c1coc(S(=O)(=O)NC(=O)Nc2c3c(cc4c2CCC4)CCC3)c1 [MCC950, reference compound]",,,protective effect against ox-LDL-induced RPE cell death (ARPE-19 cells [1]; ox-LDL 200 μg/ml (FIG. 6)): did not have any protective effect
Cc1noc(C)c1CNC(=O)C1(C)CCc2c(C)c(O)c(C)c(C)c2O1 (centres unmarked) [M],,,cytotoxicity at 0.43 µM (ARPE-19 cells [1]; [4]): < 10%
Cc1cc2n(n1)CCN(C(=O)C1(C)CCc3c(C)c(O)c(C)c(C)c3O1)C2 (centres unmarked) [N],< 10,,
Cc1c(C)c2c(c(C)c1O)CCC(C)(C(=O)N1CCC(c3ncc[nH]3)CC1)O2 (centres unmarked) [O],< 10,,
"Cc1c(C)c2c(c(C)c1O)CCC(C)(C)O2 [PMC, 2,2,5,7,8-pentamethyl-6-chromanol, reference compound]",,,"protection from ox-LDL-induced RPE cell death (ARPE-19 cells [1]; 0.43 μM, ox-LDL 200 μg/ml (FIG. 6)): > 95%; relative RPE protective activity compared with other compounds (ARPE-19 cells [1]): significantly more effective; also recorded: significantly more potent than trolox and butylated hydroxyl toluene (BHT)"
CCc1cc(CN(C)C(=O)C2(C)CCc3c(C)c(O)c(C)c(C)c3O2)on1 (centres unmarked) [P],,,"cytotoxicity at 0.14 µM (ARPE-19 cells [1]; Homo sapiens, compound 0.14 μM, ARPE-19, ox-LDL 200 μg/ml, 48 hours, LDH assay, read-out: Protective activity against 200 μg/ml ox-LDL (% cell death, compound concentration)): ~60%; cytotoxicity at 0.43 µM (ARPE-19 cells [1]; [4]): < 10%"
Cc1c(C)c2c(c(C)c1O)CCC(C)(C(=O)NCCNS(C)(=O)=O)O2 (centres unmarked) [Q],~50,< 10,
Cc1c(C)c2c(c(C)c1O)CCC(C)(C(=O)N1CCOCC1)O2 (centres unmarked) [R],< 10,,
Cc1c(C)c2c(c(C)c1O)CCC(C)(C(=O)NCCCn1cncn1)O2 (centres unmarked) [S],,< 10,
CCN(Cc1ccccn1)C(=O)C1(C)CCc2c(C)c(O)c(C)c(C)c2O1 (centres unmarked) [T],< 10,,
Cc1c(C)c2c(c(C)c1O)CCC(C)(C(=O)N1CC(n3cccn3)C1)O2 (centres unmarked) [U],< 10,,
CCN(Cc1noc(COC)n1)C(=O)C1(C)CCc2c(C)c(O)c(C)c(C)c2O1 (centres unmarked) [V],~30,< 10,
Cc1c(C)c2c(c(C)c1O)CCC(C)(C(=O)N(C)Cc1n[nH]c(=O)[nH]1)O2 (centres unmarked) [W],< 12,,
Cc1coc(C)c1CN(C)C(=O)C1(C)CCc2c(C)c(O)c(C)c(C)c2O1 (centres unmarked) [X],~22,< 16,
Cc1c(C)c2c(c(C)c1O)CCC(C)(C(=O)N(C)CCCn1cccn1)O2 (centres unmarked) [Y],~22,< 21,
Cc1c(C)c2c(c(C)c1O)CCC(C)(C(=O)N1CCNC(=O)C1)O2 (centres unmarked) [ZZ],~23,< 13,
Cc1c(C)c2c(c(C)c1O)CCC(C)(C(=O)N(C)Cc1cc[nH]n1)O2 (centres unmarked) [Z],~22,< 15,
"O=C(/C=C/c1ccc(O)cc1)c1ccc(O)cc1O [isoliquiritigenin, reference compound]",,,protective effect against ox-LDL-induced RPE cell death (ARPE-19 cells [1]; ox-LDL 200 μg/ml (FIG. 6)): only protected RPE cells at high dose
Cc1c(C)c2c(c(C)c1O)CCC(C)(C(=O)O)O2 (centres unmarked) [trolox],,,"EC50 (ARPE-19 cells [1]; Homo sapiens, ARPE-19, ox-LDL 200 μg/ml, 48 hours, trolox 0.65-10.4 μM, LDH release (FIG. 2), read-out: estimated EC50, suppression of ox-LDL-induced RPE death): ~5.4 µM; relative RPE protective activity compared with other compounds (ARPE-19 cells [1]): significantly more effective; lysosomal integrity upon ox-LDL treatment (ARPE-19 cells [2]; ARPE-19, 36 hours (FIG. 3)): preserved lysosomal integrity; number of intact lysosomes per cell (ARPE-19 cells [2]; trolox 10.4 μM in the presence of ox-LDL, 36 hours): higher number of intact lysosomes per cell compared to control; ox-LDL-induced ROS formation in RPE cells (ARPE-19 cells [3]): suppressed ROS formation; NF-κB activation upon ox-LDL treatment (NF-κB): suppressed pro-inflammatory transcription factor NF-κB activation"

# Reference: patent publication US11260048B2, “Compounds and compositions for inhibiting retinal pigment epithelium degeneration and methods using the same” (The Schepens Eye Research Institute, Inc., priority 2017, dated 2022)
